Results as given in patent US20070049564A1 (Wyeth, priority 2005, published 2007).
Converted amounts (≈) assume the structure as drawn. Read-outs that look alike come from different tables or passages of the source.

Columns and labels:
E. coli GC 2236 = assay: MIC, broth microdilution; conditions: Escherichia coli, GC2236, read-out: MINIMAL INHIBITORY CONCENTRATION MIC, pre-incubated in Water
E. coli GC 2235 = assay: MIC, broth microdilution; conditions: Escherichia coli, GC2235, read-out: MINIMAL INHIBITORY CONCENTRATION MIC, pre-incubated in Water
E. coli GC 2233 = assay: MIC, broth microdilution; conditions: Escherichia coli, GC2233, read-out: MINIMAL INHIBITORY CONCENTRATION MIC, pre-incubated in Water
E. coli GC 2234 = assay: MIC, broth microdilution; conditions: Escherichia coli, GC2234, read-out: MINIMAL INHIBITORY CONCENTRATION MIC, pre-incubated in Water
E. coli GC 2270 = assay: MIC, broth microdilution; conditions: Escherichia coli, GC2270, read-out: MINIMAL INHIBITORY CONCENTRATION MIC, pre-incubated in Water
Experimental: (§1) Antimicrobial susceptibility testing. The in vitro activities of the antibiotics are determined by the broth microdilution method as recommended by the National Committee for Clinical Laboratory Standards (NCCLS) (1). Mueller-Hinton II broth (MHBII)(BBL Cockeysville, Md.) is the medium employed in the testing procedures. Microtiter plates containing serial dilutions of each antimicrobial agent are inoculated with each organism to yield the appropriate density (10^5 CFU/ml) in a 100 μl final volume. The plates are incubated for 18-22 hours at 35° C. in ambient air.
(§2) Representative compounds were first incubated in mouse serum for an hour prior to the in vitro testing against a panel of selected gram-positive and gram-negative bacteria strains. All compounds were also pre-incubated in water for an hour prior to testing as control. Representative compounds of Formula I were incubated in human serum prior to MIC determination.

E. coli GC 2271 = assay: MIC, broth microdilution; conditions: Escherichia coli, GC2271, read-out: MINIMAL INHIBITORY CONCENTRATION MIC, pre-incubated in Water
E. coli GC 4559 = assay: MIC, broth microdilution; conditions: Escherichia coli, GC4559, read-out: MINIMAL INHIBITORY CONCENTRATION MIC, pre-incubated in Water
E. coli GC 1073 = assay: MIC, broth microdilution; conditions: Escherichia coli, GC1073, read-out: MINIMAL INHIBITORY CONCENTRATION MIC, pre-incubated in Water
P. aeruginosa GC 2214 = assay: MIC, broth microdilution; conditions: Pseudomonas aeruginosa
Experimental: as §1
Representative compounds were first incubated in mouse serum for an hour prior to the in vitro testing against a panel of selected gram-positive and gram-negative bacteria strains. All compounds were also pre-incubated in water for an hour prior to testing as control.

S. aureus GC 1131 = assay: MIC, broth microdilution; conditions: Staphylococcus aureus
S. aureus GC 1079 = assay: MIC, broth microdilution; conditions: for MIC: Staphylococcus aureus
Experimental: as §1, §2

S. aureus GC 2216 = assay: MIC, broth microdilution; conditions: Staphylococcus aureus
S. aureus GC 6335 = assay: MIC, broth microdilution; conditions: for MIC: Staphylococcus aureus
S. epidermidis GC 4935 = assay: MIC, broth microdilution; conditions: Staphylococcus epidermidis
E. faecalis GC 2242 = assay: MIC, broth microdilution; conditions: Enterococcus faecalis
E. faecium GC 4556 = assay: MIC, broth microdilution; conditions: for MIC: Enterococcus faecium
S. pneumoniae+ GC 4465 = assay: MIC, broth microdilution; conditions: for MIC: Streptococcus pneumoniae
S. pyogenes GC 4563 = assay: MIC, broth microdilution; conditions: for MIC: Streptococcus pyogenes
c. albicans GC 3066 = assay: MIC, broth microdilution
Staph. aureus Smith = assay: In vivo activity (oral, iv; ED50) against Staph. aureus Smith in mice
Experimental: Representative examples of compounds of Formula I were tested for the oral efficacy using S. aureus Smith in mice.

CN(C)c1cc(NC(=O)CN(C(=O)OCOC(=O)CC(C)(C)C)C(C)(C)C)c(O)c2c1C[C@H]1C[C@H]3[C@H](N(C)C)C(O)=C(C(N)=O)C(=O)[C@@]3(O)C(O)=C1C2=O [Example 42, ({[(2-{[(5aR,6aS,7S,10aS)-9-(aminocarbonyl)-4,7-bis(dimethylamino)-1,8,10a,11-tetrahydroxy-10,12-dioxo-5,5a,6,6a,7,10,10a,12-octahydrotetracen-2-yl]amino}-2-oxoethyl)(tert-butyl)amino]carbonyl}oxy)methyl 3,3-dimethylbutanoate]
MIC (E. coli GC 2236): > 64 mg/L
MIC (E. coli GC 2235): > 64 mg/L
MIC (E. coli GC 2233): > 64 mg/L
MIC (E. coli GC 2234): > 64 mg/L
MIC (E. coli GC 2270): > 64 mg/L
MIC (E. coli GC 2271): > 64 mg/L
MIC (E. coli GC 4559): > 64 mg/L
MIC (E. coli GC 1073): > 64 mg/L
MIC (P. aeruginosa GC 2214; GC2214, read-out: MINIMAL INHIBITORY CONCENTRATION MIC, pre-incubated in Mouse Serum): > 64 mg/L
MIC (P. aeruginosa GC 2214; GC2214, read-out: MINIMAL INHIBITORY CONCENTRATION MIC, pre-incubated in Water): > 64 mg/L
MIC (S. aureus GC 1131; GC1131, read-out: MINIMAL INHIBITORY CONCENTRATION MIC, pre-incubated in Mouse Serum): 2 mg/L (≈ 2.64 µM)
MIC (S. aureus GC 1131; GC1131, read-out: MINIMAL INHIBITORY CONCENTRATION MIC, pre-incubated in Water): 4 mg/L (≈ 5.28 µM)
MIC (S. aureus GC 1079; GC1079, read-out: MINIMAL INHIBITORY CONCENTRATION MIC, pre-incubated in Mouse Serum): 2 mg/L (≈ 2.64 µM)
MIC (S. aureus GC 1079; GC1079, read-out: MINIMAL INHIBITORY CONCENTRATION MIC, pre-incubated in Water): 4 mg/L (≈ 5.28 µM)
MINIMAL INHIBITORY CONCENTRATION MIC (S. aureus GC 1079; pre-incubated in Mouse Serum): 4 UG/ML
MIC (S. aureus GC 2216; GC2216, read-out: MINIMAL INHIBITORY CONCENTRATION MIC, pre-incubated in Mouse Serum): 2 mg/L (≈ 2.64 µM)
MIC (S. aureus GC 2216; GC2216, read-out: MINIMAL INHIBITORY CONCENTRATION MIC, pre-incubated in Water): 4 mg/L (≈ 5.28 µM)
MIC (S. aureus GC 6335; GC6335, read-out: MINIMAL INHIBITORY CONCENTRATION MIC, pre-incubated in Mouse Serum): 2 mg/L (≈ 2.64 µM)
MIC (S. aureus GC 6335; GC6335, read-out: MINIMAL INHIBITORY CONCENTRATION MIC, pre-incubated in Water): 4 mg/L (≈ 5.28 µM)
MINIMAL INHIBITORY CONCENTRATION MIC (S. aureus GC 6335; pre-incubated in Mouse Serum): 4 UG/ML
MIC (S. epidermidis GC 4935; GC4935, read-out: MINIMAL INHIBITORY CONCENTRATION MIC, pre-incubated in Mouse Serum): 4 mg/L (≈ 5.28 µM)
MIC (S. epidermidis GC 4935; GC4935, read-out: MINIMAL INHIBITORY CONCENTRATION MIC, pre-incubated in Water): 8 mg/L (≈ 10.6 µM)
MIC (E. faecalis GC 2242; GC2242, read-out: MINIMAL INHIBITORY CONCENTRATION MIC, pre-incubated in Mouse Serum): 4 mg/L (≈ 5.28 µM)
MIC (E. faecalis GC 2242; GC2242, read-out: MINIMAL INHIBITORY CONCENTRATION MIC, pre-incubated in Water): 8 mg/L (≈ 10.6 µM)
MIC (E. faecium GC 4556; GC4556, read-out: MINIMAL INHIBITORY CONCENTRATION MIC, pre-incubated in Mouse Serum): 2 mg/L (≈ 2.64 µM)
MIC (E. faecium GC 4556; GC4556, read-out: MINIMAL INHIBITORY CONCENTRATION MIC, pre-incubated in Water): 8 mg/L (≈ 10.6 µM)
MINIMAL INHIBITORY CONCENTRATION MIC (E. faecium GC 4556; pre-incubated in Mouse Serum): 4 UG/ML
MIC (S. pneumoniae+ GC 4465; read-out: MINIMAL INHIBITORY CONCENTRATION MIC, pre-incubated in Mouse Serum): 4 mg/L (≈ 5.28 µM)
MIC (S. pneumoniae+ GC 4465; read-out: MINIMAL INHIBITORY CONCENTRATION MIC, pre-incubated in Water): 8 mg/L (≈ 10.6 µM)
MINIMAL INHIBITORY CONCENTRATION MIC (S. pneumoniae+ GC 4465; pre-incubated in Mouse Serum): 8 UG/ML
MIC (S. pyogenes GC 4563; GC4563, read-out: MINIMAL INHIBITORY CONCENTRATION MIC, pre-incubated in Mouse Serum): 2 mg/L (≈ 2.64 µM)
MIC (S. pyogenes GC 4563; GC4563, read-out: MINIMAL INHIBITORY CONCENTRATION MIC, pre-incubated in Water): 4 mg/L (≈ 5.28 µM)
MINIMAL INHIBITORY CONCENTRATION MIC (S. pyogenes GC 4563; pre-incubated in Mouse Serum): 4 UG/ML
MIC (c. albicans GC 3066; Candida albicans, GC3066, read-out: MINIMAL INHIBITORY CONCENTRATION MIC): > 64 mg/L
MINIMAL INHIBITORY CONCENTRATION MIC (c. albicans GC 3066; pre-incubated in Mouse Serum): >64 UG/ML
ED50 (Staph. aureus Smith; Staphylococcus aureus, in Mus musculus, iv, read-out: ED50 SIV (Staph aureus Smith)): 1.43 mg/kg
ED50 (Staph. aureus Smith; Staphylococcus aureus, in Mus musculus, po, read-out: ED50 SOD (Staph aureus Smith)): 5.68 mg/kg
ED50 (Staph. aureus Smith; Staphylococcus aureus, in Mus musculus, po, read-out: ED50 Staph Smith SOD): 5.68 mg/kg
ED50 (Staph. aureus Smith; iv, read-out: ED50 Staph Smith SIV): 1.43 mg/kg
